Here are results for 24 molecules from patent publication US10125118B2, “Heteroaryl compounds and their use as therapeutic drugs” (Dong-A Socio Holdings Co., Ltd., priority 2015, dated 2018).

In test [1] the test system is CD8-MerTK in Ba/F3-CDM cells. The test can be described thus: In cell MER kinase assay, Ba/F3-CDM cell proliferation without IL-3 (Celltiter-Glo). The conditions noted are these: 48 hours compound treatment, read-out: Cell growth inhibition (GI50). The format is cell-based, murine. In short, it runs like this: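 Ba/F3 cells, IL-3-dependent, transfected with CD8-MerTK and grown without IL-3 in DMEM/10% FBS. IL-3-supplemented Ba/F3 cells run in parallel as a cytotoxicity control.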
A general note: ATP-based viability assays read luminescence as a measure of living cells.

Test [2] deals with human c-MER catalytic domain (Homo sapiens (Human), UniProt Q12866). Put plainly: LanthaScreen TR-FRET kinase assay, c-MER. As to conditions: read-out: Mer TK inhibition (IC50); Biochemical IC50, TR-FRET, 10 uM ATP. For orientation: Time-resolved FRET reads energy transfer from a long-lived donor to a nearby acceptor.

Broadly, the GI50 is the concentration at which growth is held to half of that of the control. Usually IC50 stands for the concentration at which inhibition is half-maximal.

human c-MER catalytic domain, sequence (Q12866 587-858): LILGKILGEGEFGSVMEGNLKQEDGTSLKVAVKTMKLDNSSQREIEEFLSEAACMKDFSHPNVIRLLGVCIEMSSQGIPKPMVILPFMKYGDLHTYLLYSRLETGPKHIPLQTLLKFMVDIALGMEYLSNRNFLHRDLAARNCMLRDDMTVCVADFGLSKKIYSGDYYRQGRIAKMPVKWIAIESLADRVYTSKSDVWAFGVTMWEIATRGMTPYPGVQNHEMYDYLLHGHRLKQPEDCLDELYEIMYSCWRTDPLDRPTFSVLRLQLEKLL

As for `C[C@H](c1ccc(-c2ccc(CO[C@H]3CCC[C@@H]3NC(=O)c3cc(-c4cnn(C)c4)cnc3N)cc2)cc1)N1CCN(C)CC1` [Example 214, 2-amino-5-(1-methyl-1H-pyrazol-4-yl)-N-((1S,2S)-2-((4′-((R)-1-(4-methylpiperazin-1-yl)ethyl)-[1,1′-biphenyl]-4-yl)methoxy)cyclopentyl)nicotinamide], in test [1], the GI50 is less than 100 nM. The IC50 in test [2] is less than 10 nM.

On to `CN1CCN(Cc2ccc(-c3ccc(CO[C@H]4CCC[C@@H]4NC(=O)c4cc(-c5cnn(C)c5)cnc4N)c(F)c3)cc2)CC1` [Example 156, 2-amino-N-((1S,2S)-2-((3-fluoro-4′-((4-methylpiperazin-1-yl)-methyl)-[1,1′-biphenyl]-4-yl)methoxy)cyclopentyl)-5-(1-methyl-1H-pyrazol-4-yl)-nicotinamide], for which, in test [1], the GI50 is less than 100 nM. In addition, in test [2], the 50% inhibitory concentration (IC50) is less than 10 nM.

For the molecule `CN1CCN(Cc2ccc(-c3ccc(CO[C@H]4CCC[C@@H]4NC(=O)c4nc(-c5cnn(C)c5)cnc4N)cc3)cc2)CC1` [Example 194, 3-amino-6-(1-methyl-1H-pyrazol-4-yl)-N-((1S,2S)-2-((4′-((4-methylpiperazin-1-yl)methyl)-[1,1′-biphenyl]-4-yl)methoxy)cyclopentyl)pyrazine-2-carboxamide], the concentration for 50% growth inhibition (GI50) in test [1] is less than 100 nM. For the same molecule, the IC50 in test [2] was less than 10 nM.

For `Cn1cc(-c2cnc(N)c(C(=O)N[C@H]3CCC[C@@H]3OCc3ccc(-c4ccc(CN5CCN(CCO)CC5)cc4Cl)cc3)c2)cn1` [Example 206, 2-amino-N-((1S,2S)-2-((2′-chloro-4′-((4-(2-hydroxyethyl)-piperazin-1-yl)methyl)-[1,1′-biphenyl]-4-yl)methoxy)cyclopentyl)-5-(1-methyl-1H-pyrazol-4-yl)nicotinamide], in test [1], the 50% growth inhibitory concentration (GI50) was 100 to 500 nM. For the same molecule, in test [2], the IC50 is less than 10 nM.

As to `CN1CCN(Cc2ccc(-c3ccc(CO[C@H]4CCC[C@@H]4NC(=O)c4cc(-c5ccc(N6CCN(C)CC6)cc5)cnc4N)cc3)cc2)CC1` [Example 367, 2-amino-N-((1S,2S)-2-((4′-((4-methylpiperazin-1-yl)methyl)-[1,1′-biphenyl]-4-yl)methoxy)cyclopentyl)-5-(4-(4-methylpiperazin-1-yl)phenyl)-nicotinamide], the 50% growth inhibitory concentration (GI50) in test [1] is less than 100 nM. Moreover, the half-inhibitory concentration (IC50) in test [2] is less than 10 nM.

As for `C[C@@H]1CN(Cc2ccc(-c3ccc(CO[C@H]4CCC[C@@H]4NC(=O)c4cc(-c5cnn(C)c5)cnc4N)cc3)cc2)CCN1C` [Example 186, 2-amino-N-((1S,2S)-2-((4′-(((R)-3,4-dimethylpiperazin-1-yl)-methyl)-[1,1′-biphenyl]-4-yl)methoxy)cyclopentyl)-5-(1-methyl-1H-pyrazol-4-yl)-nicotinamide], in test [1], the GI50 was less than 100 nM. In test [2], the IC50 was less than 10 nM.

With `CN1CCC(Cc2ccc(-c3ccc(CO[C@H]4CCC[C@@H]4NC(=O)c4cc(-c5cnn(C)c5)cnc4N)cc3)cc2)CC1` [Example 239, 2-amino-5-(1-methyl-1H-pyrazol-4-yl)-N-((1S,2S)-2-((4′-((1-methylpiperidin-4-yl)methyl)-[1,1′-biphenyl]-4-yl)methoxy)cyclopentyl)nicotinamide], the GI50 in test [1] was less than 100 nM. Besides, the half-maximal inhibitory concentration (IC50) in test [2] was less than 10 nM.

With `Nc1ncc(-c2ccc(F)nc2)cc1C(=O)N[C@H]1CCC[C@@H]1OCc1ccc(-c2ccc(C3(N4CCN(CCO)CC4)CC3)cc2)cc1` [Example 228], the 50% growth inhibitory concentration (GI50) in test [1] fell in the range of 100 to 500 nM. Also, the IC50 in test [2] is less than 10 nM.

Turning to `CCc1cc(CO[C@H]2CNC[C@@H]2NC(=O)c2cc(-c3ccc(C#N)cc3)cnc2N)ccc1C` [Example 400, 2-amino-5-(4-cyanophenyl)-N-((3S,4S)-4-((3-ethyl-4-methylbenzyl)oxy)pyrrolidin-3-yl)nicotinamide], the GI50 in test [1] lay within 500 to 1000 nM. For the same molecule, the IC50 in test [2] was less than 10 nM.

In the case of `CN1CCN(Cc2ccc(-c3ccc(CO[C@H]4CCC[C@@H]4NC(=O)c4cc(-c5ccc(CN6CCOCC6)cc5)cnc4N)cc3)cc2)CC1` [Example 379, 2-amino-N-((1S,2S)-2-((4′-((4-methylpiperazin-1-yl)methyl)-[1,1′-biphenyl]-4-yl)methoxy)cyclopentyl)-5-(4-(morpholinomethyl)phenyl)nicotinamide], the GI50 in test [1] was less than 100 nM. In addition, in test [2], the concentration for half-maximal inhibition (IC50) was less than 10 nM.

As for `CC(c1ccc(-c2ccc(CO[C@H]3CCC[C@@H]3NC(=O)c3cc(-c4ccc(F)nc4)cnc3N)cc2)cc1)N1CCN(C)CC1` (stereo in doubt) [Example 223, 6-amino-6′-fluoro-N-((1S,2S)-2-((4′-((R)-1-(4-methylpiperazin-1-yl)ethyl)-[1,1′-biphenyl]-4-yl)methoxy)cyclopentyl)-[3,3′-bipyridine]-5-carboxamide], the GI50 in test [1] is 100 to 500 nM. Also, the half-maximal inhibitory concentration (IC50) in test [2] is less than 10 nM.

Regarding `CCc1cc(CO[C@H]2CNC[C@@H]2NC(=O)c2cc(-c3ccc(C(N)=O)cc3)cnc2N)ccc1C` [Example 391, 2-amino-5-(4-carbamoylphenyl)-N-((3S,4S)-4-((3-ethyl-4-methylbenzyl)oxy)pyrrolidin-3-yl)nicotinamide], the GI50 in test [1] was more than 1000 nM. Moreover, the concentration for half-maximal inhibition (IC50) in test [2] is less than 10 nM.

In the case of `CN1CCN(Cc2ccc(-c3ccc(CO[C@H]4CCC[C@@H]4NC(=O)c4cc(-c5cnn(C(F)(F)C(F)F)c5)cnc4N)cc3)cc2)CC1` [Example 387], in test [1], the GI50 is less than 100 nM. Besides, the 50% inhibitory concentration (IC50) in test [2] is less than 10 nM.

Take `CCc1cc(CO[C@H]2CCC[C@@H]2NC(=O)c2cc(-c3ccc(C(C)(C)N4CCN(CCO)CC4)cc3)cnc2N)ccc1C` [Example 360, 2-amino-N-((1S,2S)-2-((3-ethyl-4-methylbenzyl)oxy)cyclopentyl)-5-(4-(2-(4-(2-hydroxyethyl)piperazin-1-yl)propan-2-yl)phenyl)nicotinamide]: the GI50 in test [1] is more than 1000 nM. The concentration for half-maximal inhibition (IC50) in test [2] is less than 10 nM.

For `CN1CCN(Cc2ccc(-c3ccc(CO[C@H]4CCC[C@@H]4NC(=O)c4cc(-c5ccc(CO)cc5)cnc4N)cc3)cc2)CC1` [Example 369, 2-amino-5-(4-(hydroxymethyl)phenyl)-N-((1S,2S)-2-((4′-((4-methylpiperazin-1-yl)methyl)-[1,1′-biphenyl]-4-yl)methoxy)cyclopentyl)nicotinamide], the 50% growth inhibitory concentration (GI50) in test [1] was less than 100 nM. For the same molecule, the half-inhibitory concentration (IC50) in test [2] is less than 10 nM.

Turning to `CNc1ccc(-c2ccc(CO[C@H]3CCC[C@@H]3NC(=O)c3cc(-c4cnn(C)c4)cnc3N)cc2)cc1` [Example 136, 2-amino-5-(1-methyl-1H-pyrazol-4-yl)-N-((1S,2S)-2-((4′-(methylamino)-[1,1′-biphenyl]-4-yl)methoxy)cyclopentyl)nicotinamide], the concentration for 50% growth inhibition (GI50) in test [1] fell in the range of 100 to 500 nM. Also, the half-inhibitory concentration (IC50) in test [2] is less than 10 nM.

`Cn1cc(-c2cnc(N)c(C(=O)N[C@H]3COC[C@@H]3OCc3ccc(-c4ccc(C(C)(C)N5CCN(CCO)CC5)cc4)cc3)c2)cn1` [Example 453, 2-amino-N-((3S,4R)-4-((4′-(2-(4-(2-hydroxyethyl)piperazin-1-yl)-propan-2-yl)-[1,1′-biphenyl]-4-yl)methoxy)tetrahydrofuran-3-yl)-5-(1-methyl-1H-pyrazol-4-yl)nicotinamide]: the GI50 in test [1] lay within 100 to 500 nM. Moreover, in test [2], the 50% inhibitory concentration (IC50) was less than 10 nM.

`CN1CCN(Cc2ccc(-c3ccc(CO[C@H]4COC[C@@H]4NC(=O)c4cc(-c5cnn(C)c5)cnc4N)cc3)cc2)CC1` [Example 448, 2-amino-5-(1-methyl-1H-pyrazol-4-yl)-N-((3S,4R)-4-((4′-((4-methylpiperazin-1-yl)methyl)-[1,1′-biphenyl]-4-yl)methoxy)tetrahydrofuran-3-yl)-nicotinamide]: the GI50 in test [1] is less than 100 nM. In addition, the 50% inhibitory concentration (IC50) in test [2] was less than 10 nM.

`CC(c1ccc(-c2ccc(CO[C@H]3CNC[C@@H]3NC(=O)c3cc(-c4cnn(C)c4)cnc3N)cc2)cc1)N1CCN(C)CC1` (stereo partly drawn) [Example 438, 2-amino-5-(1-methyl-1H-pyrazol-4-yl)-N-((3S,4S)-4-((4′-(1-(4-methylpiperazin-1-yl)ethyl)-[1,1′-biphenyl]-4-yl)methoxy)pyrrolidin-3-yl)-nicotinamide]: in test [1], the GI50 fell in the range of 500 to 1000 nM. The concentration for half-maximal inhibition (IC50) in test [2] is less than 10 nM.

Turning to `CN1CCN(c2ccc(-c3ccc(CO[C@H]4CCC[C@@H]4NC(=O)c4cc(-c5cnn(C)c5)cnc4N)cc3)cc2)CC1` [Example 146, 2-amino-5-(1-methyl-1H-pyrazol-4-yl)-N-((1S,2S)-2-((4′-(4-methylpiperazin-1-yl)-[1,1′-biphenyl]-4-yl)methoxy)cyclopentyl)nicotinamide], the GI50 in test [1] was less than 100 nM. Also, the IC50 in test [2] is less than 10 nM.

Turning to `Cc1ccc(CO[C@H]2CCC[C@@H]2NC(=O)c2cc(-c3ccc(CN4CCC(O)CC4)cc3)cnc2N)cc1C` [Example 328, 2-amino-N-((1S,2S)-2-((3,4-dimethylbenzyl)oxy)cyclopentyl)-5-(4-((4-hydroxypiperidin-1-yl)methyl)phenyl)nicotinamide], the GI50 in test [1] fell in the range of 500 to 1000 nM. The half-maximal inhibitory concentration (IC50) in test [2] is less than 10 nM.

As for `Cn1cc(-c2cnc(N)c(C(=O)N[C@H]3COC[C@@H]3OCc3ccc(-c4ccc(CN5CCN(CCO)CC5)cc4)cc3)c2)cn1` [Example 451, 2-amino-N-((3S,4R)-4-((4′-((4-(2-hydroxyethyl)piperazin-1-yl)methyl)-[1,1′-biphenyl]-4-yl)methoxy)tetrahydrofuran-3-yl)-5-(1-methyl-1H-pyrazol-4-yl)nicotinamide], the GI50 in test [1] is less than 100 nM. For the same molecule, the 50% inhibitory concentration (IC50) in test [2] was less than 10 nM.

For `Cc1ccc(CO[C@H]2CCC[C@@H]2NC(=O)c2cc(-c3ccc(CN4CCC(N5CCOCC5)C4)cc3)cnc2N)cc1C` (stereo partly drawn) [Example 337, 2-amino-N-((1S,2S)-2-((3,4-dimethylbenzyl)oxy)cyclopentyl)-5-(4-((3-morpholinopyrrolidin-1-yl)methyl)phenyl)nicotinamide], in test [1], the GI50 is 500 to 1000 nM. Moreover, in test [2], the concentration for half-maximal inhibition (IC50) is less than 10 nM.

For `CC(c1ccc(-c2ccc(CO[C@H]3CCC[C@@H]3NC(=O)c3cc(F)cnc3N)cc2)cc1)N1CCN(C)CC1` (stereo partly drawn) [Example 232, 2-amino-5-fluoro-N-((1S,2S)-2-((4′-(1-(4-methylpiperazin-1-yl)-ethyl)-[1,1′-biphenyl]-4-yl)methoxy)cyclopentyl)nicotinamide], the GI50 in test [1] was in the range of 500 to 1000 nM. Also, in test [2], the IC50 is less than 10 nM.
